What was measured:
Type in all cases: cell-based
[1] = tested on: TNF-α production in LPS + IFN-γ activated RAW 264.7 macrophages; assay: Inhibition of TNF-α production (ELISA) in LPS + IFN-γ activated RAW 264.7 macrophages; conditions: Mus musculus, RAW264.7, 24 hrs, N = 6, mean ± SD
Description: (§1) All compounds were assessed for their anti-inflammatory activity by evaluating the inhibition of NO production and TNF-α in LPS plus interferon (IFN)-γ activated RAW 264.7 macrophages. All compounds were also evaluated for their cytotoxicity using the Alamar blue assay (Table 3).
(§2) Cells were grown in 75 cm^2 flasks on Dulbecco’s Modified Eagle Medium (DMEM) containing 10% fetal bovine serum (FBS) that was supplemented with penicillin (100 U/mL), streptomycin (100 μg/mL) and L-glutamine (2 mM). The cell line was maintained in 5% CO2 at 37 °C, with media being replaced every 3–4 days. Once cells had grown to confluence in the culture flask, they were harvested using a rubber policeman, as opposed to using trypsin, which can remove membrane-bound receptors.
(§3) RAW 264.7 cells (1 × 10^6 cells/mL) were seeded in 96 well plates (Corning® Costar®, Sigma, Sydney, Australia) overnight until confluency. When the cells were confluent, each compound was serially diluted from a starting concentration of 100 μg mL^−1 to construct a dose response curve (i.e., 100, 50, 25, 12.5, 6.25, and 3.13 μg mL^−1) and co-incubated with cells for 1 hr prior to the addition of 1 μg mL^−1 LPS and 10 U mL^−1 (1 unit = 0.1 ng/mL) IFN-γ. After activation, the cells were incubated for another 24 hrs at 37 °C. The supernatant was then collected for NO, and TNF-α assays. The cells were subjected to cell viability measurement using the Alamar Blue assay. Non-activated cells (exposed to media only) were used as negative control and activated cells were positive control.
The stored supernatants were analyzed for TNF-α synthesis using a commercial ELISA kit (Peprotech, Brisbane, Australia) according to the manufacturer’s instructions. The absorbance was measured at 410 nm. The concentrations of TNF-α in the experimental samples were extrapolated from a standard curve.
(§4) Data analysis was carried using GraphPad Prism 9.3.1. Calculations were performed using MS-Excel version 16.61.1. IC50 values were obtained by using the sigmoidal dose–response function in GraphPad Prism. The results were expressed as mean ± standard deviation (SD).

[2] = tested on: nitric oxide (NO) production in LPS + IFN-γ activated RAW 264.7 macrophages; assay: Inhibition of NO production (Griess assay) in LPS + IFN-γ activated RAW 264.7 macrophages; conditions: for IC50: Mus musculus, RAW264.7, 24 hrs, N = 6, mean ± SD; for Anti-inflammatory activity (in words): verbal judgement of Table 3 data
Description: as §1, §2, §3
Nitric oxide was determined by the Griess reagent as described in previous studies. Griess reagent was freshly made up of equal volumes of 1% sulfanilamide in 5% phosphoric acid and 0.1% N-1-naphthylethylenediamine dihydrochloride in Milli-Q water. From each well, 50 µL of supernatant was transferred to a fresh 96-well plate and mixed with 50 µL of Griess reagent. The production of nitrite as an indicator of NO was measured at 540 nm in a POLARstar Omega microplate reader (BMG Labtech, Mornington, Australia).
as §4

RAW 264.7 macrophages = assay: Cell viability / cytotoxicity by the Alamar Blue assay; conditions: Mus musculus, RAW264.7, 24 h, LPS + IFN-γ activated RAW 264.7 macrophages, N = 6, mean ± SD
Description: as §1, §2, §3
After various treatments and the stimulation by LPS and IFN-γ overnight, 100 µL of Alamar Blue solution [10% Alamar Blue (resazurin) in DMEM media] was added to cells and incubated at 37 °C for 2 hrs. The fluorescence intensity was measured with excitation at 530 nm and emission at 590 nm using a microplate reader. The results were expressed as a percentage of the intensity to that of control cells (non-activated cells).
as §4

Structure (SMILES) | IC50 [1] | IC50 [2] | CC50 (RAW 264.7 macrophages) | Anti-inflammatory activity (in words) [2]
COc1c(C)c(O)cc2c1C[C@@H]1OCc3c(cc4c(c3O)OCO4)[C@H]1O2 [Compound 1, Myrtinol A] | 24.5 ± 0.28 µg/mL | 11.5 ± 0.14 µg/mL | 18.8 ± 0.39 µg/mL | 
COc1cc2c(c(O)c1OC)CO[C@H]1Cc3c(cc(O)c(C)c3OC)O[C@H]21 [Compound 2, Myrtinol B] | 52.4 ± 7.47 µg/mL | 16.2 ± 0.77 µg/mL | 37.2 ± 2.09 µg/mL | 
COc1cc2c(c(O)c1C)[C@@H](O)[C@@H]1OCc3c(cc(OC)c(OC)c3O)[C@H]1O2 [Compound 3, Myrtinol C] | > 100 µg/mL | > 100 µg/mL | > 100 µg/mL | inactive
COc1cc2c(c(O)c1C)C[C@@H]1OCc3c(cc(OC)c(OC)c3O)[C@H]1O2 [Compound 4, Myrtinol D] | 91.3 ± 7.14 µg/mL | 29.3 ± 10.9 µg/mL | 71.5 ± 14.7 µg/mL | 
COc1cc2c(c(OC)c1C)C[C@@H]1OCc3c(cc4c(c3O)OCO4)[C@H]1O2 [Compound 5, Myrtinol E] | 17.2 ± 0.22 µg/mL | 8.51 ± 0.47 µg/mL | 15.5 ± 0.42 µg/mL | 
COc1cc2c(c(OC)c1C)C[C@@H]1OCc3c(cc(OC)c(OC)c3O)[C@H]1O2 [Compound 6, Myrtinol F] | 30.6 ± 5.01 µg/mL | 12.6 ± 0.26 µg/mL | 19.8 ± 0.86 µg/mL | 
COc1ccc([C@@H]2Oc3c(O)cc(CCCO)cc3[C@H]2CO)cc1OC [Compound 7, 4-O-methylcedrusin] | > 100 µg/mL | 44.1 ± 13.4 µg/mL | > 100 µg/mL | did not show good anti-inflammatory activity
COc1cc([C@@H]2Oc3c(OC)cc(CCCO)cc3[C@H]2CO)ccc1O [Compound 8, 7-O-methylcedrusin] | > 100 µg/mL | > 100 µg/mL | > 100 µg/mL | did not show good anti-inflammatory activity
COc1cc2oc(-c3ccc(O)cc3)cc(=O)c2c(O)c1C [Compound 9, 8-demethylsideroxylin] | 46.8 ± 5.87 µg/mL | 8.3 ± 0.96 µg/mL | 20.4 µg/mL | 
COc1cc(/C=C/C(=O)CC(=O)/C=C/c2ccc(O)c(OC)c2)ccc1O [curcumin, reference compound] | 4.19 ± 2.6 µg/mL | 4.64 ± 1.5 µg/mL | 10.9 ± 1.3 µg/mL | 
